Assay results as given in patent US5817815A, “Pharmacologically active enantiomers” (Angelini Ricerche S.p.A. Societa Consortile, priority 1993, dated 1998).

Legend:
[1] = analgesic activity, phenylquinone test in mice via subcutaneous route; assay type: in vivo; conditions: for ED50: Mus musculus, sc, mice, subcutaneous, phenylquinone test; for analgesic activity, in words: comparison of enantiomers and racemate
Method: Thirty animals were treated with each product.

[2] = target: T1, deferent of rat (Rattus norvegicus); experiment: alphalytic activity on an isolated organ (deferent of rat); conditions: isolated deferent of rat; read-out: Alphalytic activity pA2 (converted)
T1 construct: evaluated on an isolated organ (deferent of rat); from tissue; host or cells: isolated vas deferens of rat
Method: (§1) Since an interference with the adrenergic system is an index of undesirable effects, both the capability of binding to alpha 1 adrenergic receptors, as IC50 (Table 2), and the alphalytic activity (Table 3) of the same compounds have been evaluated.
(§2) In turn, the alphalytic activity was evaluated on an isolated organ (deferent of rat) according to the technique described in "Clinical and Experimental Pharmacology & Physiology", 6, 275-279, (1979).

[3] = target: alpha 1 adrenergic receptors; experiment: affinity for alpha 1 adrenergic receptors, receptor binding test; conditions: for IC50: receptor binding; for interference with the adrenergic receptor, in words: comparison with racemate
From the text: as §1
As far as the receptor binding test is concerned, reference is made to "Molecular Pharmacology", 20, 295-301, (1981).

[4] = target: T2, deferent of rat (Rattus norvegicus, UniProt P43140); experiment: alphalytic activity on an isolated organ (deferent of rat); conditions: comparison of enantiomers and racemate
T2 construct: evaluated on an isolated organ (deferent of rat); from tissue; host or cells: isolated vas deferens of rat
T2 sequence (P43140 1-466): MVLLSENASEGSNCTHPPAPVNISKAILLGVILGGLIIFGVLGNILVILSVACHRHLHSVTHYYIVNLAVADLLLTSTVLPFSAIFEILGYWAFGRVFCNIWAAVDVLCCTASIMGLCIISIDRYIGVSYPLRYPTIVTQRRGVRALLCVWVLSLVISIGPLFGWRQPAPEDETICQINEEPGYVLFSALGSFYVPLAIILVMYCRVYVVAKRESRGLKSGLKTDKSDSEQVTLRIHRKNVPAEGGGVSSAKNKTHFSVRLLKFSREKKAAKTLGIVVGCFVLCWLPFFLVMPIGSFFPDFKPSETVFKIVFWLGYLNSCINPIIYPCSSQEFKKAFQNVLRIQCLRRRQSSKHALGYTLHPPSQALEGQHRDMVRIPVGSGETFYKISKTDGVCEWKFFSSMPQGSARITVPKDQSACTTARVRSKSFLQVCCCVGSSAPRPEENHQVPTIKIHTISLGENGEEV
Method: as §1, §2

For `CC1CN(c2cccc(Cl)c2)CCN1CCCn1nc2ccccn2c1=O` (racemic) [Racemate, reference compound], the ED50 [1] was over 12.5 mg/kg, the “analgesic activity, in words” value [1] was “less analgesic activity compared to the single enantiomers” and the Kb [2] was 20 nM. It also gave an IC50 [3] of 471 nM.

In the case of `C[C@@H]1CN(c2cccc(Cl)c2)CCN1CCCn1nc2ccccn2c1=O` [(R), (R)-2-[3-[4-(3-chlorophenyl)-1-(2-methyl)-piperazinyl]-propyl]-1,2,4-triazol[4,3-a]-pyridine-3(2H)-one], the ED50 [1] is reported as 9.02 mg/kg, the Kb [2] is reported as 178 nM and the “alphalytic activity, in words” value [4] is reported as “lower than those of racemate”. The “interference with the adrenergic receptor, in words” value [3] was “lower than those of racemate” and the IC50 [3] was 533 nM.

In the case of `C[C@H]1CN(c2cccc(Cl)c2)CCN1CCCn1nc2ccccn2c1=O` [(S), (S)-2-[3-[4-(3-chlorophenyl)-1-(2-methyl)-piperazinyl]-propyl]-1,2,4-triazol[4,3-a]-pyridine-3(2H)-one], the ED50 [1] is reported as 7.8 mg/kg, the “analgesic activity, in words” value [1] is reported as “more active than (R) enantiomer” and the Kb [2] is reported as 3980 nM. The “alphalytic activity, in words” value [4] was “lower than those of racemate”, the “alphalytic activity, in words” value ([4]; listed as (S) enantiomer) was “lower than that of (R) enantiomer” and the “interference with the adrenergic receptor, in words” value [3] was “lower than those of racemate”. It also gave an IC50 [3] of 981 nM.
